According to ChEMBL document CHEMBL1201862, “PubChem BioAssay data set” (2004):
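Results reflect a 48-hour exposure of cells in 96-well plates to compound at five concentrations. GI50 is the concentration that inhibits growth by half.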 Active and inactive are the calls of the source. No stated cut-off is given here; in the data, active = GI50 up to about 1.1 µM and inactive = higher.

How the values were obtained:
Assay in all cases: inhibition of tumour cell growth, NCI panel, 48 h
786-0 = test system: 786-0
A498 = test system: A498
ACHN = test system: ACHN
CAKI-1 = test system: CAKI-1
CCRF-CEM = test system: CCRF-CEM
KM12 = test system: KM12
M14 = test system: M14
MOLT-4 = test system: MOLT-4
Malme-3M = test system: Malme-3M
NCI-H460 = test system: NCI-H460
OVCAR-8 = test system: OVCAR-8
SF-268 = test system: SF-268
SK-MEL-28 = test system: SK-MEL-28
SNB-19 = test system: SNB-19
SNB-75 = test system: SNB-75
SW-620 = test system: SW-620
UO-31 = test system: UO-31
HCT-116 = test system: HCT-116

Compound | GI50 (786-0) | GI50 (A498) | GI50 (ACHN) | GI50 (CAKI-1) | GI50 (CCRF-CEM) | GI50 (KM12) | GI50 (M14) | GI50 (MOLT-4) | GI50 (Malme-3M) | GI50 (NCI-H460) | GI50 (OVCAR-8) | GI50 (SF-268) | GI50 (SK-MEL-28) | GI50 (SNB-19) | GI50 (SNB-75) | GI50 (SW-620) | GI50 (UO-31) | GI50 (HCT-116)
CCOc1ccc(NC2=NC(=O)C(CC(=O)Nc3ccc(Cl)cc3Cl)S2)cc1 (stereo unspecified) | > 100 µM (inactive) | 68.7 µM (inactive) | > 100 µM (inactive) | > 100 µM (inactive) | 21.6 µM (inactive) | > 100 µM (inactive) | > 100 µM (inactive) | 43.8 µM (inactive) | > 100 µM (inactive) | > 100 µM (inactive) | > 100 µM (inactive) | > 100 µM (inactive) | > 100 µM (inactive) | > 100 µM (inactive) | > 100 µM (inactive) | > 100 µM (inactive) | > 100 µM (inactive) | –
CCOC(=O)N[C@H]1CCc2cc(O)c(OC)c(OC)c2-c2ccc(SC)c(=O)cc21 | 0.0304 µM (active) | 0.0208 µM (active) | 0.069 µM (active) | 0.0266 µM (active) | < 0.0139 µM (active) | 0.0154 µM (active) | < 0.01 µM (active) | 0.03 µM (active) | 0.0111 µM (active) | 0.0172 µM (active) | 0.0301 µM (active) | 0.0207 µM (active) | < 0.029 µM (active) | 0.0282 µM (active) | < 0.01 µM (active) | < 0.0137 µM (active) | 0.736 µM (active) | < 0.0138 µM (active)
CCOC(=O)C1C(c2ccccc2)=C(c2ccccc2)C(c2ccccc2)=C1c1ccccc1 | 21 µM (inactive) | 20 µM (inactive) | 28.6 µM (inactive) | > 65.3 µM (inactive) | > 79.3 µM (inactive) | > 100 µM (inactive) | 57.4 µM (inactive) | 50 µM (inactive) | 40.9 µM (inactive) | 51.8 µM (inactive) | 25.7 µM (inactive) | 43 µM (inactive) | 54.1 µM (inactive) | 18.8 µM (inactive) | 13.2 µM (inactive) | 81.5 µM (inactive) | 45.9 µM (inactive) | 20.8 µM (inactive)
CC(=O)C1=CCC2c3[nH]c4ccccc4c3CCN2C1 (stereo unspecified) | 35.1 µM (inactive) | > 100 µM (inactive) | 78 µM (inactive) | – | 38.5 µM (inactive) | 52.6 µM (inactive) | > 100 µM (inactive) | 42.1 µM (inactive) | 72.1 µM (inactive) | 45 µM (inactive) | 47.6 µM (inactive) | 69.2 µM (inactive) | > 100 µM (inactive) | > 100 µM (inactive) | 15.1 µM (inactive) | > 100 µM (inactive) | > 100 µM (inactive) | 45 µM (inactive)
CCOC(=O)N1c2c(ccn2C)-c2ccn(C)c2N1C(=O)OCC | 11.1 µM (inactive) | 44.1 µM (inactive) | 15.8 µM (inactive) | 18.3 µM (inactive) | 2.64 µM (inactive) | 19.9 µM (inactive) | 15.1 µM (inactive) | 6.18 µM (inactive) | 19 µM (inactive) | 19.4 µM (inactive) | 14.1 µM (inactive) | 19.1 µM (inactive) | – | > 10 µM (inactive) | 15.5 µM (inactive) | 15.2 µM (inactive) | 19.8 µM (inactive) | 14.8 µM (inactive)
O=C(Nc1nc2ncn(CCNCCn3cnc4nc(NC(=O)c5ccccc5)[nH]c(=O)c43)c2c(=O)[nH]1)c1ccccc1 | > 100 µM (inactive) | > 100 µM (inactive) | > 100 µM (inactive) | > 100 µM (inactive) | > 100 µM (inactive) | > 100 µM (inactive) | > 100 µM (inactive) | > 100 µM (inactive) | > 100 µM (inactive) | > 100 µM (inactive) | > 100 µM (inactive) | > 100 µM (inactive) | > 100 µM (inactive) | > 100 µM (inactive) | > 100 µM (inactive) | > 100 µM (inactive) | > 100 µM (inactive) | > 100 µM (inactive)
COC(=O)C1=C(O)c2cc(OC)c(OC)c(OC)c2C(c2ccc3c(c2)OCO3)[C@@H]1C(=O)OC (stereo partly specified) | 3.65 µM (inactive) | 3.82 µM (inactive) | 4.74 µM (inactive) | 0.935 µM (active) | 4.42 µM (inactive) | 2.94 µM (inactive) | 3.03 µM (inactive) | 4.69 µM (inactive) | 3.44 µM (inactive) | 5.47 µM (inactive) | 5.37 µM (inactive) | 4.28 µM (inactive) | 7.31 µM (inactive) | – | 4.07 µM (inactive) | 2.22 µM (inactive) | 6.08 µM (inactive) | 4.36 µM (inactive)
Cn1c2c(cc(-c3ccccc3)c1=O)COc1ccccc1-2 | 39.3 µM (inactive) | 40.6 µM (inactive) | 24 µM (inactive) | 37.5 µM (inactive) | 30.5 µM (inactive) | 13 µM (inactive) | 31.6 µM (inactive) | 23.1 µM (inactive) | 20.3 µM (inactive) | 20.3 µM (inactive) | 34 µM (inactive) | 28.6 µM (inactive) | 24.1 µM (inactive) | 40.9 µM (inactive) | 23.4 µM (inactive) | 45.9 µM (inactive) | 27.5 µM (inactive) | 16.9 µM (inactive)
Cc1ccc(-c2c(N)nc(NC#N)nc2CCC(=O)Nc2ccccc2[N+](=O)[O-])cc1 | > 100 µM (inactive) | > 100 µM (inactive) | > 100 µM (inactive) | > 100 µM (inactive) | > 100 µM (inactive) | > 100 µM (inactive) | > 100 µM (inactive) | > 100 µM (inactive) | > 100 µM (inactive) | > 100 µM (inactive) | – | > 100 µM (inactive) | > 100 µM (inactive) | > 100 µM (inactive) | > 100 µM (inactive) | > 100 µM (inactive) | > 100 µM (inactive) | > 100 µM (inactive)
COC(=O)[C@@]12CC(C(C)C)[C@H]3CC(C(=O)C=C1OC)[C@H]32 (stereo partly specified) | > 100 µM (inactive) | > 100 µM (inactive) | > 100 µM (inactive) | > 100 µM (inactive) | 47.5 µM (inactive) | > 100 µM (inactive) | > 100 µM (inactive) | > 100 µM (inactive) | > 100 µM (inactive) | > 100 µM (inactive) | > 100 µM (inactive) | > 100 µM (inactive) | > 100 µM (inactive) | > 100 µM (inactive) | > 100 µM (inactive) | > 100 µM (inactive) | – | > 100 µM (inactive)
C[C@@H]1O[C@@H](O[C@H]2[C@H](Oc3cc(O)c4c(=O)cc(-c5ccc(O)cc5)oc4c3)O[C@H](CO)[C@@H](O)[C@@H]2O)[C@H](O)[C@H](O)[C@H]1O [RHOIFOLIN] | > 100 µM (inactive) | > 100 µM (inactive) | > 100 µM (inactive) | > 100 µM (inactive) | > 100 µM (inactive) | > 100 µM (inactive) | > 100 µM (inactive) | > 100 µM (inactive) | > 100 µM (inactive) | > 100 µM (inactive) | > 100 µM (inactive) | > 100 µM (inactive) | > 100 µM (inactive) | > 100 µM (inactive) | > 100 µM (inactive) | – | > 100 µM (inactive) | > 100 µM (inactive)
